The values below come from paper PMC4262670 (Macromolecular bioscience, 2014).

Data set [1] has as its system non-small cell lung carcinoma (NSCLC). To be noted: ref [59]; cited from earlier work.
The test system of data set [2] is first recurrence of ovarian cancer. Particulars: added to carboplatin and gemcitabine; ref [56]; cited from earlier work.
The conditions of data set [3]: clinical investigation; ref [31]; cited from earlier work.
The subject of data set [4] is A2780 and OVCAR-3 human ovarian cancer cell lines. The data set is described as follows: Single agent in vitro cytotoxicity, WST-8, result stated over both cell lines. Format: cell-based. Particulars: A2780 versus OVCAR-3, WST-8. Background: Formazan colour is commonly taken as a measure of viable cells.
The conditions of data set [5]: cited from earlier work; for water solubility of free drugs: medium with 0.5 % (v/v) DMSO used to prevent precipitation, no reference given.
For data set [6] the following is noted: ref [8]; cited from earlier work.
For data set [7] the following is noted: ref [13]–[15]; cited from earlier work.

`CC(=O)O[C@H]1C(=O)[C@@]2(C)[C@H]([C@H](OC(=O)c3ccccc3)[C@]3(O)C[C@H](OC(=O)[C@H](O)[C@@H](NC(=O)c4ccccc4)c4ccccc4)C(C)=C1C3(C)C)[C@]1(OC(C)=O)CO[C@@H]1C[C@@H]2O` [paclitaxel]: the mean survival time in data set [1] is 6.5 weeks.
On to “bevacizumab: anti-angiogenic monoclonal antibody against VEGF-A, added to carboplatin and gemcitabine”, for which the “disease progression and overall survival” value in data set [2] is “greater reduction in risk of disease progression and an improvement in overall survival”.
Turning to `COC1=C2C[C@@H](C)C[C@H](OC)[C@H](O)[C@@H](C)/C=C(\C)[C@H](OC(N)=O)[C@@H](OC)/C=C\C=C(/C)C(=O)NC(=CC1=O)C2=O` [geldanamycin], the “hepatotoxicity” value in data set [3] is given as “significant hepatotoxicity”.
For the compound `CO[C@H]1/C=C\C=C(/C)C(=O)NC2=CC(=O)C(NCCCCCCN)=C(C[C@@H](C)C[C@H](OC)[C@H](O)[C@@H](C)/C=C(\C)[C@@H]1OC(N)=O)C2=O` [AHGDM, 17-(hexane-1,6-diamine)-17-demethoxygeldanamycin], the “differences in susceptibility of cell lines” value in data set [4] was “did not indicate overall trends in differences in the susceptibility”. In addition, in data set [5], the “water solubility of free drugs” value is given as “poor water solubility”.
On to `C=CCNC1=C2C[C@@H](C)C[C@H](OC)[C@H](O)[C@@H](C)/C=C(\C)[C@H](OC(N)=O)[C@@H](OC)/C=C\C=C(/C)C(=O)NC(=CC1=O)C2=O` [17-AAG, 17-(allylamino)-17-demethoxygeldanamycin], for which the “water solubility, ref 32” value in data set [5] (ref [32]) is reported as “poorly water soluble”.
In the case of `CC(=O)O[C@@]12CO[C@@H]1C[C@H](O)[C@@]1(C)C(=O)[C@H](O)C3=C(C)[C@@H](OC(=O)[C@H](O)[C@@H](NC(=O)OC(C)(C)C)c4ccccc4)C[C@@](O)([C@@H](OC(=O)c4ccccc4)[C@H]21)C3(C)C` [DOC, docetaxel], the “differences in susceptibility of cell lines” value in data set [4] is recorded as “did not indicate overall trends in differences in the susceptibility”. Also, the “in vitro cytotoxicity compared to paclitaxel” value in data set [6] is “superior in vitro cytotoxicity”. The “cross resistance with paclitaxel” value in data set [7] is “does not demonstrate complete cross resistance with paclitaxel”. For the same compound, the “water solubility of free drugs” value in data set [5] was “poor water solubility”.
